# Reference: patent US8507498B2, “4, 6-disubstituted aminopyrimidine derivatives as inhibitors of protein kinases” (Ingenium Pharmaceuticals GmbH, priority 2007, dated 2013)
# Entries after “also recorded” stand apart in the source; their conditions may differ.
# How the values were obtained:
# CDK1/CycB = CDK1/CycB (Homo sapiens, UniProt P06493); experiment: General kinase assay (Example 80); assay type: biochemical; details: ATP 1 μM
# Protocol: (§1) The inhibitory effect of compounds according to the present invention on the activity of protein kinases can be measured according to the following protocol: • Reaction Volume: 40 μl • Reaction Time: 60 min • Reaction Temperature: room temperature • Assay Plate: 96 well U bottom plate (Greiner, 650161) • MultiScreen-PH Plate: 96 well MAPH Filter Plates (Millipore, MAPHNOB50) • Filter Washing Solution: 0.75% H3PO4 • Scintillation Liquid Supermix Liquid Scintillator (PerkinElmer, 1200-439) Controls: • Negative Control (C−): 100 mM EDTA (Ethylenediaminetetraacetic acid), no Inhibitor • Positive Control (C+): no Inhibitor Reaction Buffer: • 20 mM Tris (Tris(hydroxymethyl)aminomethane hydrochloride), pH 7.5 • 10 mM MgCl2 • 1 mM DTT Final Assay Concentrations: • Kinase: Use kinase conc. yielding 10% ATP turn over. • ATP: 1 μM • Adenosine 5′-[-^33P]triphosphate:12.5 μCi/ml (Amersham Biosciences, BF1000) • Substrate: Myelin Basic Protein 10 μM (Invitrogen, 13228-010) Pipetting Sequence: • 1) Add 10 μl 4 fold concentrated Substrate+4 fold concentrated ATP in […] concentrated Reaction Buffer to each well of Assay Plate • 2) Add 10 μl 4 fold concentrated inhibitor in 4% DMSO in H2O to each well except to C− and C+wells • 3) Add 10 μl 4% DMSO in H2O to C− and C+wells • 4) Add 10 μl 500 mM EDTA in H2O to C− wells • 5) Add 10 μl 50 μCi/ml Adenosine 5′-[-^33P]triphosphate in H2O to each well • 6) Add 10 μl 4 fold concentrated kinase in Reaction Buffer to each well • 7) Incubate 1 hr at room temperature • 8) Add 10 μl 50 mM EDTA in H2O to each well except to C− wells • 9) Prepare MAPH plates by adding 200 μl 0.75% H3PO4 to each well • 10) Exhaust 0.75% H3PO4 using Millipore vacuum station • 11) Add 60 μl 0.75% H3PO4 to each well of MAPH Filter Plate • 12) Transfer 30 μl sample per well from Assay Plate to corresponding well of MAPH Filter Plate • 13) Incubate 30 min at room temperature • 14) Wash each well of MAPH Filter Plates 3× with 200 μl 0.75% H3PO4 using Millipore vacuum station. • 15) Add 20 μl Scintillation Liquid to each well of MAPH Filter Plate • 16) Seal MAPH Filter Plate • 17) Store MAPH Filter Plate 30 min in darkness • 18) Quantify radioactivity Results:
# (§2) IC50s were calculated for each kinase based on serial dilutions.
# CDK9/CycT1 = target: T1, CDK9/CycT1 (Homo sapiens, UniProt P50750); experiment: General kinase assay (Example 80); assay type: biochemical; details: ATP 1 μM
# T1 construct: made in house; host or cells: HEK293 cells (ATCC CRL-1573), recombinant adenovirus
# T1 sequence (P50750 whole entry, species assumed): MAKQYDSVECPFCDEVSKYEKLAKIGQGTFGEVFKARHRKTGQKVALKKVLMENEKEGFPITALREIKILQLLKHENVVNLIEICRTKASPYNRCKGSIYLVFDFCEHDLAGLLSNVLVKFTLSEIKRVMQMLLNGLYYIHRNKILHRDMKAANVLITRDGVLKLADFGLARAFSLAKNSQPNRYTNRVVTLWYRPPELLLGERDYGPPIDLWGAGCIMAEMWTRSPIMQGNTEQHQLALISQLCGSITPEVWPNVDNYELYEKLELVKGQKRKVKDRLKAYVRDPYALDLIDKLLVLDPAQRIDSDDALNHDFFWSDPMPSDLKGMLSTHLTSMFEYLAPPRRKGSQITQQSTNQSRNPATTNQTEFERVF
# T1 sequence (O60563 whole entry partner, species assumed): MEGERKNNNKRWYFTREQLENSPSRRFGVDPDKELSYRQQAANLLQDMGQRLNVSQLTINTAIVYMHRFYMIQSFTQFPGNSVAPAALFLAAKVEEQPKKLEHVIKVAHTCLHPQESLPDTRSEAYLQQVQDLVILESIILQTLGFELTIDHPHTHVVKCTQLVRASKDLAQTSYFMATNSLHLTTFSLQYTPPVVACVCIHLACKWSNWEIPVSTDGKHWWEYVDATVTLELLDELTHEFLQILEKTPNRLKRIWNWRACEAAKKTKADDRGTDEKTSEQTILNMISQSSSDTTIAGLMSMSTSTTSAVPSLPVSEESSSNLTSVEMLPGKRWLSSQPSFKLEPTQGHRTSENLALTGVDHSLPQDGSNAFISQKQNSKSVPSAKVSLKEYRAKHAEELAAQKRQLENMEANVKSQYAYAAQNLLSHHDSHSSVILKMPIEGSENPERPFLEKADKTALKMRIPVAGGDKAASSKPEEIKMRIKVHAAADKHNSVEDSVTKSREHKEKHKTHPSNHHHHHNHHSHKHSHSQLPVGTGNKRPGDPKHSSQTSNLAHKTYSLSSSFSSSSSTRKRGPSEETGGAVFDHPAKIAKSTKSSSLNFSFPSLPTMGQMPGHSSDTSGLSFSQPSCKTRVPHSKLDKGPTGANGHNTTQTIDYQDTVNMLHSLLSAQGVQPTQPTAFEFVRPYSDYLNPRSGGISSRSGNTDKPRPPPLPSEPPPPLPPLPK
# Excerpt: Both cDNA fragments were cloned by PCR into pDONR201 vectors using the gateway recombination system (Invitrogen) according to the manufacturer's recommendations. The fragments were subcloned into a gateway-adapted shuttle vector (pPM7) for production of recombinant adenovirus. All plasmids were verified by restriction digests and sequencing analysis.
# Expression and purification of CDK9/Cyclin T1 proteins was in principle performed as described by Cotten et al. (M. Cotten et al., Nucleic acids research, 2003, 31(28), 128).
# Kinase assays using CDK9/Cyclin T1 were performed in principle as described by Cotten et al. (M. Cotten et al., Nucleic acids research, 2003, 31(28), 128).
# as §2
# U373-MAGI-CCR5E = experiment: Growth assay using Alamar Blue; assay type: cell-based; details: read-out: IC50 against cell line U373-MAGI-CCR5E
# Protocol: (§3) Cells were seeded in 384-well plates (white, Greiner: 781080) at a density of […] cells per well in medium (RPMI+10% FCS).
# (§4) Cells were incubated in 25 μl medium/well and were grown over night at 37° C., 6% CO2. On the following day compounds were added in DMSO in serial fold dilutions in fresh medium. Negative control wells were incubated without cells. Positive control wells were incubated with cells but without inhibitors (DMSO only). These wells served as data points to determine relative growth (given in % of the DMSO control [=100%]). The cell number was determined by addition of 5 μL Alamar Blue™ (Biosource DAL1100) to each well. Fluorescence was measures with an Analyst GT machine (Molecular Devices) at an excitation wavelength of 560 nm and an emission wavelength of 590 nm.
# (§5) The following cell lines were used: A2780 (ECACC order number 93112519; human ovarian carcinoma; Semin Oncol (1984) 11:285; Cancer Res (1987) 47:414), B16F1 (ATCC order number CRL-6323; melanoma; Nat. New Biol. 242: 148-149, 1973); HCT116 (ATCC order number CCL-247; Colorectal carcinoma; Cancer Res (1981) 41:1751; Cancer (1995) 76:201), HT29 (ATTC order number HTB-38; colorectal adenocarcinoma; J. Biol. Chem. 271: 9490-9496, 1996) HepG2 (ATCC order number HB-8065; hepatocellular carcinoma; J. Biol. Chem. 271: 10073-10078, 1996), J774 (ATCC order number TIB-67; reticulum cell sarcoma; J. Biol. Chem. 271: 18431-18436, 1996); MCF7 (ATCC order number HTB-22; Breast carcinoma; J Natl Cancer Inst (1973) 51:1409; Cancer Res (1993) 53:5193), PM1 (obtainable from the National Institute of Allergy and Infectious Diseases; Division of AIDS via the NIH AIDS Research & Reference Reagent Program; Lusso P et al (1995), J Virol 69: 3712-3720) and U373-MAGI-CCR5 (obtainable from the National Institute of Allergy and Infectious Diseases; Division of AIDS via the NIH AIDS Research & Reference Reagent Program; Kensinger R D et al (2004), Antimicrob Agents Chemother 48: 1614-1623).
# (§6) IC50s were calculated for each cell line based on serial dilutions.
# HCT116 = experiment: Growth assay using Alamar Blue; assay type: cell-based; details: Homo sapiens, HCT-116, read-out: IC50 against cell line HCT116
# Protocol: as §3, §4, §5, §6
# CDK2/CycA = target: T2, CDK2/CycA (Homo sapiens, UniProt P24941); experiment: General kinase assay (Example 80); assay type: biochemical; details: ATP 1 μM
# T2 construct: purchased ProQinase (Freiburg, Germany)
# Protocol: (§7) Kinase assays determining CDK2/CyclinA and CDK5/p35 activity were performed as described by the manufacturer's recommendations (ProQinase (Freiburg, Germany) for CDK2/CyclinA and Upstate for CDK5/p35).
# as §1, §2
# CDK5/p35 = target: T3, CDK5/p35 (Homo sapiens, UniProt Q00535); experiment: General kinase assay (Example 80); assay type: biochemical; details: ATP 1 μM
# T3 construct: purchased Upstate
# T3 sequence (Q00535 whole entry): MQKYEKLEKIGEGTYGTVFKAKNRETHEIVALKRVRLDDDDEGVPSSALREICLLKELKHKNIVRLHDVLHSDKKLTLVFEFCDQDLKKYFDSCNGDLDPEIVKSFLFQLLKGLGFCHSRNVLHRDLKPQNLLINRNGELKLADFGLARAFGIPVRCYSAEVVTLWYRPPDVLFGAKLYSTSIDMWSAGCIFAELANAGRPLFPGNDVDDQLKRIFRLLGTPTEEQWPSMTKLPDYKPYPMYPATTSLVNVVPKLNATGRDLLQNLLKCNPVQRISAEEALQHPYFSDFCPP
# T3 sequence (Q15078 whole entry partner): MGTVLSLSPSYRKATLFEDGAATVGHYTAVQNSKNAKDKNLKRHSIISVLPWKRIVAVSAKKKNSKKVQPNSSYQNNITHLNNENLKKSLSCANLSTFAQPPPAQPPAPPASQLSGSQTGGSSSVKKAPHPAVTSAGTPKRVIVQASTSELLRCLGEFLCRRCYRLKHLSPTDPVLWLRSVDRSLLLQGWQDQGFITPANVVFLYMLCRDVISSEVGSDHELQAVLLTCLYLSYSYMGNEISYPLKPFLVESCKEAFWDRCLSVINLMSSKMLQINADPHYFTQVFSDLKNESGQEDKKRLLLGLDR
# Protocol: as §7, §1, §2
# [1] = tested on: SNI mice (mechanical allodynia); experiment: Spared nerve injury (SNI) model, von Frey assay; assay type: in vivo; details: 30 mg/kg per os 30 min prior to measurement, day 107 post SNI, vs vehicle
# Protocol: Wildtype mice (strain C3HeB/FeJ) (age, sex and weight matched) were anesthetized with Hypnorm (0.315 mg/ml fentanyl citrate+10 mg/ml fluanisone; Janssen)/Hypnovel (5 mg/ml midazolam; Roche Applied Sciences)/water at a ratio of 1:1:2 at 4 μl/g prior to surgical preparation.
# Subsequently, an incision was made under aseptic precautions in the ipsi-lateral right hind leg of all mice just above the level of the knee, exposing the three terminal branches of the sciatic nerve: the common peroneal, tibial, and sural nerves. The common peroneal and tibial nerves were ligated tightly with 7/0 silk and sectioned distal to the ligation removing ≈2 mm of distal nerve stump. The sural branch remained untouched during the procedure (denoted herein “SNI ipsi”). The overlying muscle and skin was sutured, and the animals were allowed to recover and to permit wound healing. […]
# Injection of inhibitor or vehicle, and subsequent measurements of paw withdrawal threshold to mechanical stimulation in von Frey assays were performed at day 107 post SNI. Reflex nociceptive responses to mechanical stimulation were measured in a von Frey assay 30 min after each injection. […]
# Mechanical thresholds of SNI mice were quantified using the up-down method based on Chaplan et al. (1994) and Malmberg and Basbaum (1998). […]
# CDK6/CycD3 = CDK6/CycD3 (Homo sapiens, UniProt Q00534); experiment: General kinase assay (Example 80); assay type: biochemical; details: ATP 1 μM
# Chain of CDK6/CycD3 (Q00534 whole entry, species assumed): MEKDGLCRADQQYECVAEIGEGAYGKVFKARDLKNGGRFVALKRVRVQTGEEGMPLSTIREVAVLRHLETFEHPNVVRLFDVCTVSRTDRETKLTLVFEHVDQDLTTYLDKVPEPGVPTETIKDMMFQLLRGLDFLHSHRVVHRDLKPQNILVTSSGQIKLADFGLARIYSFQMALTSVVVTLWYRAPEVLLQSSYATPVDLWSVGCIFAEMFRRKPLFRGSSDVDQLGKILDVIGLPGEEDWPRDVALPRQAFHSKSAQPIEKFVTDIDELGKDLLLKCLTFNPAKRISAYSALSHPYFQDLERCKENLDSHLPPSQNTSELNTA
# Chain of CDK6/CycD3 (P30281 whole entry partner, species assumed): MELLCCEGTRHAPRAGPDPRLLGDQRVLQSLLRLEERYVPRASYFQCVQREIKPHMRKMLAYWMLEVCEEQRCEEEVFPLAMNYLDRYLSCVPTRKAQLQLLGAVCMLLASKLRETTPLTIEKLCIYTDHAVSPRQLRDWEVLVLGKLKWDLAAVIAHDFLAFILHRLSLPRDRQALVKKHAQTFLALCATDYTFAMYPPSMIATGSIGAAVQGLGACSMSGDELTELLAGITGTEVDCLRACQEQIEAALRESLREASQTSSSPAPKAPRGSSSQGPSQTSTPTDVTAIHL
# Protocol: as §1, §2
# CDK4/CycD1 = CDK4/CycD1 (Homo sapiens, UniProt P11802); experiment: General kinase assay (Example 80); assay type: biochemical; details: ATP 1 μM
# Chain of CDK4/CycD1 (P11802 whole entry, species assumed): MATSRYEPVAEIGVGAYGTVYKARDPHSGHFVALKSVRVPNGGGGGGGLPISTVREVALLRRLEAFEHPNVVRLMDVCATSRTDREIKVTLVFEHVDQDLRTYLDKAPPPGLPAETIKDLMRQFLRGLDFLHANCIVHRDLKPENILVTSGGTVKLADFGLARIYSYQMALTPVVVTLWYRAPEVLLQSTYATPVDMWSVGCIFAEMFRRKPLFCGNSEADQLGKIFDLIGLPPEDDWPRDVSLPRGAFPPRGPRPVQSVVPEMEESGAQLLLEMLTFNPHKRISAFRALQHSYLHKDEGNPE
# Chain of CDK4/CycD1 (P24385 whole entry partner, species assumed): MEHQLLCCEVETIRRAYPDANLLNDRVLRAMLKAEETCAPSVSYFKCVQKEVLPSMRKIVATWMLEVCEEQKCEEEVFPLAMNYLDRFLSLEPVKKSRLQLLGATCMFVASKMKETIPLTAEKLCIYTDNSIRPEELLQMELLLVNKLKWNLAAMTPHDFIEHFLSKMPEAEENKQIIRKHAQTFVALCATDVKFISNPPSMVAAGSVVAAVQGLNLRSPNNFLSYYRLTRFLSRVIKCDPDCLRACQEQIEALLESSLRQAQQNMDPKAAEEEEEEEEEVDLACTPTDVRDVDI
# Protocol: as §1, §2
# HepG2 = experiment: Growth assay using Alamar Blue; assay type: cell-based; details: Homo sapiens, read-out: IC50 against cell line HepG2
# Protocol: as §3, §4, §5, §6
# PM1 = experiment: Growth assay using Alamar Blue; assay type: cell-based; details: read-out: IC50 against cell line PM1
# Protocol: as §3, §4, §5, §6
# Chain of CDK1/CycB (P06493 whole entry, species assumed): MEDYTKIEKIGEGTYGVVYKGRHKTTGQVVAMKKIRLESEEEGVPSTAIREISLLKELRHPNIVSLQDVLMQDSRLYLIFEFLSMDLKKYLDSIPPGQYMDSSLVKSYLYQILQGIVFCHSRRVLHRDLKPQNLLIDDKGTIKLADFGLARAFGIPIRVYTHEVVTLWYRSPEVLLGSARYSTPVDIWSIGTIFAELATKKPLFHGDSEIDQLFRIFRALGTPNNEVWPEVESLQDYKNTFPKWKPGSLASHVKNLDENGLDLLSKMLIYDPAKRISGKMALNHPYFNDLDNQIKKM
# Chain of CDK1/CycB (P14635 whole entry partner, species assumed): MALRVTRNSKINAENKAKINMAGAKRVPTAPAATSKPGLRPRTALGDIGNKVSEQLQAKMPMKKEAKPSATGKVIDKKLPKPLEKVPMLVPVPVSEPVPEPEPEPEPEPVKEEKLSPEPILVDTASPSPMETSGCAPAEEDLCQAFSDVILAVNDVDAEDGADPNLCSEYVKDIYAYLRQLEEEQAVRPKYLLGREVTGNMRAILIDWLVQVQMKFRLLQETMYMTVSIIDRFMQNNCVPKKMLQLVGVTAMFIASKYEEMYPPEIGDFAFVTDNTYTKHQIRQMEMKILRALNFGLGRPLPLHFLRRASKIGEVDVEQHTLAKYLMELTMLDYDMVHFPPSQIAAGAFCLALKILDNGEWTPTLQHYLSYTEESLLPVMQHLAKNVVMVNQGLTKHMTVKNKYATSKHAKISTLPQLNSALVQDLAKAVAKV
Compound,IC50 (CDK1/CycB) [µM],IC50 (CDK9/CycT1) [µM],IC50 (U373-MAGI-CCR5E) [µM],IC50 (HCT116) [µM],IC50 (CDK2/CycA) [µM],IC50 (CDK5/p35) [µM],melting point [°C],"paw withdrawal threshold to mechanical stimulation (von Frey), mechanical allodynia [1]",IC50 (CDK6/CycD3) [µM],IC50 (CDK4/CycD1) [µM],IC50 (HepG2) [µM],IC50 (PM1) [µM]
"COc1ccccc1-c1cc(Nc2cccc(CS(=O)(=O)N(C)C)c2)ncn1 [Compound 20, C-{3-[6-(2-methoxy-phenyl)-pyrimidin-4-ylamino]-phenyl}-N,N-dimethyl-methanesulfonamide]",< 5,< 0.5,< 10,< 5,< 2,< 5,187.5 to 188.8,–,–,–,–,–
"CCOc1ccccc1-c1cc(Nc2cccc(CS(=O)(=O)NC)c2)ncn1 [Compound 43, C-{3-[6-(2-Ethoxy-phenyl)-pyrimidin-4-ylamino]-phenyl}-N-methyl-methanesulfonamide]",–,–,–,–,–,–,–,hypoalgesic effect; also recorded: significant increase of threshold values,–,–,–,–
"CNS(=O)(=O)Cc1cccc(Nc2cc(-c3ccccc3OC)ncn2)c1 [Compound 49, C-{3-[6-(2-methoxy-phenyl)-pyrimidin-4-ylamino]-phenyl}-N-methyl-methanesulfonamide]",< 5,< 0.1,–,< 2,< 2,< 5,–,–,< 10,< 10,> 10,< 5
"COCCNS(=O)(=O)Cc1cccc(Nc2cc(-c3ccccc3OC)ncn2)c1 [Compound 86, N-(2-methoxy-ethyl)-C-{3-[6-(2-methoxy-phenyl)-pyrimidin-4-ylamino]-phenyl}-methanesulfonamide]",< 10,< 0.5,–,< 5,< 10,< 10,–,–,–,> 10,–,–
